Results taken from ChEMBL document CHEMBL1777712, “The identification of new metallo-β-lactamase inhibitor leads from fragment-based screening” (Bioorg Med Chem Lett, 2011).

Assays:
[1] = Competitive inhibition of metallo-beta-lactamase IMP-1 expressed in Escherichia coli BL21(DE3) using benzylpenicillin as substrate by 96-well plate assay
[2] = Un-competitive inhibition of metallo-beta-lactamase IMP-1 expressed in Escherichia coli BL21(DE3) using benzylpenicillin as substrate by 96-well plate assay
[3] = Competitive inhibition of metallo-beta-lactamase IMP-1 expressed in Escherichia coli BL21(DE3) using penicillin G as substrate by 96-well plate assay
[4] = Competitive inhibition of metallo-beta-lactamase IMP-1 expressed in Escherichia coli BL21(DE3) using penicillin G as substrate by cuvette assay

OCc1ccc(Cn2ccnc2)cc1
Ki [1]: > 2000 µM
Ki [2]: 790 µM

COC(=O)c1cccc(CN)c1
Ki [1]: 890 µM
Ki [2]: 410 µM

Cn1c(S)nnc1C(F)(F)F
Ki [1]: 970 µM
Ki [2]: > 2000 µM

Nc1ccc(C(F)(F)F)cc1N
Ki [1]: 990 µM
Ki [2]: 430 µM

NC(=O)Cc1ccc(F)cc1Cl
Ki [1]: 760 µM
Ki [2]: 680 µM

C[C@H](CS)C(=O)N1CCC[C@H]1C(=O)O [CAPTOPRIL]
Ki [3]: 7.2 µM
Ki [4]: 12.5 µM
Ki [2]: > 2000 µM

Nc1ccc(Cn2ccnc2)cc1
Ki [1]: 1510 µM
Ki [2]: 1180 µM

Nc1cccc(Cn2ccnc2)c1
Ki [1]: 1640 µM
Ki [2]: 780 µM

OCc1ccc(-n2ccnc2)cc1
Ki [1]: > 2000 µM
Ki [2]: 500 µM

Nc1cccc(-c2cccnc2)c1
Ki [1]: 510 µM
Ki [2]: 900 µM
